For assay [1], the system named is guinea pig tracheal smooth muscle. Description: Tracheal relaxant activity of VIP analogs on isolated guinea pig tracheal rings. As to conditions: cumulative concentration response, relaxation as % of maximum response to VIP (10^-6 M=100%), three tissues pooled, linear regression. The assay is classed as cell-based. The essentials: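 Male guinea pig tracheal rings under 1.5 g resting tension in Krebs at 37° C, 95% O2/5% CO2, isometric tension. Cumulative concentration-response curves; relaxation as % of response to 10^-6 M VIP added at end; three tissues pooled, EC50 by linear regression.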

Another assay has as its system guinea pigs. Description: In vivo bronchodilator activity by tracheal instillation against histamine challenge. The arrangement: species or system guinea pig. As to conditions: anesthetized male guinea pigs, inhibition of histamine (i.v.)-induced rise in tracheal pressure. As for the experimental part:
The in vivo bronchodilator activity of VIP and VIP analogs in guinea pigs was assessed by the tracheal instillation route of administration. This technique utilized male guinea pigs (Hartley strain, Charles River) weighing 400-600 g. Animals were anesthetized with urethane (2 g/kg) intraperitoneally and a polyethylene cannula was inserted into the jugular vein for intraveneous drug administration.
The animals were tracheotomized and dosing solutions of distilled water or test compound dissolved in distilled water were administered into the trachea, approximately three-quarters the distance to the carina with a pipette. The concentration of the dosing solution was adjusted to deliver a constant volume of […]. The animals were placed supine for one minute to aid drug delivery to the lung. One minute later, spontaneous breathing was arrested with succinylcholine chloride (1.2 mg/kg) administered intraveneously, and the animals were ventilated with a HARVARD Model 680 small animal respirator set at 40 breaths/min and 4.0 cm^3 stroke volume. The animals were challenged with a maximal constrictory dose of histamine ([…], i.v.) and tracheal pressure (cm of water) was recorded from a STATHAM pressure transducer (P 32 AA).
The change in tracheal pressure was averaged for at least 3 control and 3 drug-treated animals and percent inhibition was calculated. The relative potency of compounds administered by the instillation route was determined by administering various doses of test compound and calculating the median effective dose (ED50 value). The ED50 was determined from log dose-response curves generated by at least 3 doses that caused inhibitory effects between 10% and 90%. The correlation coefficients for the regression line of each compound was always greater than 0.95.
For determination of the time course of inhibition for various compounds, the time between administration of compound and challenge with histamine was varied. The time course of activity was calculated as the time when inhibition decreased to 40%.
The results summarized in Table II show the in vivo bronchodilator activity of the VIP analogs in comparison to native VIP.

Each structure is given as a SMILES string. Where a SMILES comes first, the peptide text is derived from it. Bridges are numbered along the chain shown (N, C = ends). [ ]: non-standard residue; d: D form. The star is where a group is joined. Phe(4-F) = N[C@@H](Cc1ccc(F)cc1)C(=O)O; NMeA = CN[C@@H](C)C(=O)O; Nle = CCCC[C@H](N)C(=O)O; Acm = CC(=O)NC*

For orientation: EC50 means the concentration giving half of the maximal effect. Read a high EC50 as lower potency in that assay.

In assay [1], `CCCC[C@H](NC(=O)[C@H](CCC(N)=O)NC(=O)[C@H](CCCCN)NC(=O)[C@H](CCCNC(=N)N)NC(=O)[C@H](CC(C)C)NC(=O)[C@H](CCCCN)NC(=O)[C@@H](NC(=O)[C@H](Cc1ccc(O)cc1)NC(=O)[C@H](CC(N)=O)NC(=O)[C@H](CC(=O)O)NC(=O)[C@@H](NC(=O)[C@H](Cc1ccc(F)cc1)NC(=O)[C@@H](NC(=O)[C@H](C)NC(=O)[C@H](CC(=O)O)NC(=O)[C@H](CO)NC(=O)[C@H](Cc1c[nH]cn1)NC(C)=O)C(C)C)[C@@H](C)O)[C@@H](C)O)C(=O)N[C@@H](C)C(=O)N[C@@H](C)C(=O)N[C@@H](CCCCN)C(=O)N[C@H]1CCCCNC(=O)C[C@@H](C(=O)N[C@H](C(=O)N[C@@H](CC(C)C)C(=O)N[C@H](C(=O)NCC(=O)NCC(=O)N[C@@H](CSCNC(C)=O)C(N)=O)[C@@H](C)O)C(C)C)NC(=O)[C@H](CC(N)=O)NC(=O)[C@H](CC(C)C)NC(=O)[C@H](Cc2ccc(O)cc2)NC1=O` [SEQ ID NO:32, Ac-[p-F-Phe^6,Lys^12,Nle^17,Ala^19,Asp^25,Val^26,Thr^28,Gly^29,30,Cys(Acm)^31]-VIP (1-31)-NH2 cyclo (Lys^21 →Asp^25)] (Ac-HSDAV[Phe(4-F)]TDNYTKLRKQ[Nle]AAKKYLNDVLTGGC(Acm)-NH2; lactam 21-25) came in with an EC50 of 0.44 nM. For the same molecule, the “Bronchodilator activity of VIP analogs in guinea pigs, ED50” value (from here on “Bronchodilator activity of VIP analogs”) with guinea pigs was determined as 0.19 μg.

On to `CCCC[C@H](NC(=O)[C@H](CCC(N)=O)NC(=O)[C@H](CCCCN)NC(=O)[C@H](CCCNC(=N)N)NC(=O)[C@H](CC(C)C)NC(=O)[C@H](CCCCN)NC(=O)[C@@H](NC(=O)[C@H](Cc1ccc(O)cc1)NC(=O)[C@H](CC(N)=O)NC(=O)[C@H](CC(=O)O)NC(=O)[C@@H](NC(=O)[C@H](Cc1ccccc1)NC(=O)[C@@H](NC(=O)[C@H](C)NC(=O)[C@H](CC(=O)O)NC(=O)[C@H](C)NC(=O)[C@H](Cc1c[nH]cn1)NC(C)=O)C(C)C)[C@@H](C)O)[C@@H](C)O)C(=O)N[C@@H](C)C(=O)N[C@@H](C)C(=O)N[C@@H](CCCCN)C(=O)N[C@H]1CCCCNC(=O)C[C@@H](C(=O)N[C@H](C(=O)N[C@@H](CC(C)C)C(=O)N[C@H](C(N)=O)[C@@H](C)O)C(C)C)NC(=O)[C@H](CC(N)=O)NC(=O)[C@H](CC(C)C)NC(=O)[C@H](Cc2ccc(O)cc2)NC1=O` [SEQ ID NO:33, Ac-[Ala^2,Lys^12,Nle^17,Ala^19,Asp^25,Val^26,Thr^28]-VIP cyclo (Lys^21 →Asp^25)] (Ac-HADAVFTDNYTKLRKQ[Nle]AAKKYLNDVLT-NH2; lactam 21-25), for which a half-maximal response in assay [1] (EC50) required 1.2 nM. The “Bronchodilator activity of VIP analogs” value in the assay on guinea pigs amounted to 0.6 μg.

Consider `CCCC[C@H](NC(=O)[C@H](CCC(N)=O)NC(=O)[C@H](CCCCN)NC(=O)[C@H](CCCNC(=N)N)NC(=O)[C@H](CC(C)C)NC(=O)[C@H](CCCCN)NC(=O)[C@@H](NC(=O)[C@H](Cc1ccc(O)cc1)NC(=O)[C@H](CC(N)=O)NC(=O)[C@H](CC(=O)O)NC(=O)[C@@H](NC(=O)[C@H](Cc1ccccc1)NC(=O)[C@@H](NC(=O)[C@H](C)NC(=O)[C@H](CC(=O)O)NC(=O)[C@H](CO)NC(=O)[C@H](C)N(C)C(C)=O)C(C)C)[C@@H](C)O)[C@@H](C)O)C(=O)N[C@@H](C)C(=O)N[C@@H](C)C(=O)N[C@@H](CCCCN)C(=O)N[C@H]1CCCCNC(=O)C[C@@H](C(=O)N[C@H](C(=O)N[C@@H](CC(C)C)C(=O)N[C@H](C(N)=O)[C@@H](C)O)C(C)C)NC(=O)[C@H](CC(N)=O)NC(=O)[C@H](CC(C)C)NC(=O)[C@H](Cc2ccc(O)cc2)NC1=O` [SEQ ID NO:34, Ac-[N-Me-Ala^1,Lys^12,Nle^17,Ala^19,Asp^25,Val^26,Thr^28]-VIP cyclo (Lys^21 →Asp^25)] (Ac-[NMeA]SDAVFTDNYTKLRKQ[Nle]AAKKYLNDVLT-NH2; lactam 21-25), for which the EC50 in assay [1] stood at 0.71 nM. In the assay on guinea pigs, the “Bronchodilator activity of VIP analogs” value is listed as 1.0 μg.

As for `CCCC[C@H](NC(=O)[C@H](CCC(N)=O)NC(=O)[C@H](CCCCN)NC(=O)[C@H](CCCNC(=N)N)NC(=O)[C@H](CC(C)C)NC(=O)[C@H](CCCCN)NC(=O)[C@@H](NC(=O)[C@H](Cc1ccc(O)cc1)NC(=O)[C@H](CC(N)=O)NC(=O)[C@H](CC(=O)O)NC(=O)[C@@H](NC(=O)[C@H](Cc1ccccc1)NC(=O)[C@@H](NC(=O)[C@H](C)NC(=O)[C@H](CC(=O)O)NC(=O)[C@H](CO)NC(=O)[C@H](Cc1c[nH]cn1)NC(C)=O)C(C)C)[C@@H](C)O)[C@@H](C)O)C(=O)N[C@@H](C)C(=O)N[C@@H](C)C(=O)N[C@@H](CCCCN)C(=O)N[C@H]1CCCCNC(=O)C[C@@H](C(=O)N[C@@H](CC(C)C)C(=O)N[C@@H](CCCCN)C(=O)N[C@@H](CCCCN)C(N)=O)NC(=O)[C@H](CC(N)=O)NC(=O)[C@H](CC(C)C)NC(=O)[C@H](Cc2ccc(O)cc2)NC1=O` [SEQ ID NO:38, Ac-[Lys^12,Nle^17,Ala^19,Asp^25,Leu^26,Lys^27,28]-VIP cyclo (Lys^21 →Asp^25)] (Ac-HSDAVFTDNYTKLRKQ[Nle]AAKKYLNDLKK-NH2; lactam 21-25), the EC50 in assay [1] turned out to be 0.13 nM. For the same molecule, the “Bronchodilator activity of VIP analogs” value in the assay on guinea pigs was 0.09 μg.

In turn, `CCCC[C@H](NC(=O)[C@H](CCC(N)=O)NC(=O)[C@H](CCCCN)NC(=O)[C@H](CCCNC(=N)N)NC(=O)[C@H](CC(C)C)NC(=O)[C@H](CCCCN)NC(=O)[C@@H](NC(=O)[C@H](Cc1ccc(O)cc1)NC(=O)[C@H](CC(N)=O)NC(=O)[C@H](CC(=O)O)NC(=O)[C@@H](NC(=O)[C@H](Cc1ccccc1)NC(=O)[C@@H](NC(=O)[C@H](C)NC(=O)[C@H](CC(=O)O)NC(=O)[C@H](CO)NC(=O)[C@H](C)N(C)C(C)=O)C(C)C)[C@@H](C)O)[C@@H](C)O)C(=O)N[C@@H](C)C(=O)N[C@@H](C)C(=O)N[C@@H](CCCCN)C(=O)N[C@H]1CCCCNC(=O)C[C@@H](C(=O)N[C@@H](CC(C)C)C(=O)N[C@@H](CCCCN)C(=O)N[C@@H](CCCCN)C(N)=O)NC(=O)[C@H](CC(N)=O)NC(=O)[C@H](CC(C)C)NC(=O)[C@H](Cc2ccc(O)cc2)NC1=O` [SEQ ID NO:39, Ac-[N-Me-Ala^1,Lys^12,Nle^17,Ala^19,Asp^25,Leu^26,Lys^27,28]-VIP cyclo (Lys^21 →Asp^25)] (Ac-[NMeA]SDAVFTDNYTKLRKQ[Nle]AAKKYLNDLKK-NH2; lactam 21-25) returned an EC50 in assay [1] of 0.95 nM. Also, the “Bronchodilator activity of VIP analogs” value with guinea pigs amounted to 0.06 μg.

With `CCCC[C@H](NC(=O)[C@H](CCC(N)=O)NC(=O)[C@H](CCCCN)NC(=O)[C@H](CCCNC(=N)N)NC(=O)[C@H](CC(C)C)NC(=O)[C@H](CCCCN)NC(=O)[C@@H](NC(=O)[C@H](Cc1ccc(O)cc1)NC(=O)[C@H](CC(N)=O)NC(=O)[C@H](CCC(=O)O)NC(=O)[C@@H](NC(=O)[C@H](Cc1ccccc1)NC(=O)[C@@H](NC(=O)[C@H](C)NC(=O)[C@H](CC(=O)O)NC(=O)[C@H](CO)NC(=O)[C@H](Cc1c[nH]cn1)NC(C)=O)C(C)C)[C@@H](C)O)[C@@H](C)O)C(=O)N[C@@H](C)C(=O)N[C@@H](C)C(=O)N[C@@H](CCCCN)C(=O)N[C@H]1CCCCNC(=O)C[C@@H](C(=O)N[C@@H](CC(C)C)C(=O)N[C@@H](CCCCN)C(=O)N[C@@H](CCCCN)C(N)=O)NC(=O)[C@H](CC(N)=O)NC(=O)[C@H](CC(C)C)NC(=O)[C@H](Cc2ccc(O)cc2)NC1=O` [SEQ ID NO:40, Ac-[Glu^8,Lys^12,Nle^17,Ala^19,Asp^25,Leu^26,Lys^27,28]-VIP cyclo (Lys^21 →Asp^25)] (Ac-HSDAVFTENYTKLRKQ[Nle]AAKKYLNDLKK-NH2; lactam 21-25), a half-maximal response in assay [1] (EC50) required 0.45 nM. Moreover, in the assay on guinea pigs, the “Bronchodilator activity of VIP analogs” value turned out to be 0.022 μg.
